Source: US20060121116A1, “Hydrogel for cell separation and method of separating cells” (priority 2003, published 2006)

Tested on: human peripheral blood leucocytes
Assay: Migration capability of neutrophils: fMLP in soft agar under hydrogel layer
Format: cell-based
Details: for Number of Cells in Hydrogel of the Invention: 37° C., 3 hours, 10^7 leucocytes applied; for Number of Cells in Soft Agar: microscopically observed
Method: Soft agar mediums (prepared by dissolving Nacalai Tesque's soft agar powder in a D′MEM (Dulbecco's Modification Eagle's Medium, by GIBCO, containing 10% FCS (Fetal Calf Serum)) having 0.6% of concentration and each containing 0 M, 10^−6 M, 10^−7 M or 10^−8 M of fMLP (N-formyl-methionyl-leucyl-phenylalanine, molecular weight 437.6, chemotactic peptide, produced by Sigma) were prepared at 42° C. Each medium was put into a polystyrene dish (mfd. by SOMILON) having a diameter of 35 mm in an amount of 1 ml (depth of medium, about 1 mm) each, and gelled therein at room temperature. The hydrogel-forming polymer (TGP-5) of the invention obtained in Production Example 7 was sterilized with EOG in the same manner as in Production Example 4. One g of the polymer was dissolved in 9 g of D′MEM medium at 4° C., and this was put on the above-mentioned soft agar gel in an amount of 0.5 ml (depth of the polymer solution, about 0.5 mm) each, and gelled at room temperature. The sol-gel transition temperature of the hydrogel was 18° C. On the hydrogel layer of the invention, a tissue culture insert (mfd. by NUNC) with a filter having a pore size of 8.0 μm was set, and 0.5 ml of a cell suspension containing 10^7 human peripheral blood leucocytes was put into the insert and set in an incubator at 37° C. This was statically set therein at 37° C. for 3 hours, and then the dish was taken out of the incubator. The dish was cooled on ice, the tissue culture insert was removed, and the hydrogel of the invention was converted into a sol state. The hydrogel of the invention that was liquid with cooling with ice was collected, diluted with physiological saline and centrifuged (3000 rpm, 5 minutes). The precipitated cell were re-suspended in 20 μl of physiological saline, and the number of the cell was counted to thereby determine the number of the neutrophils having moved into the hydrogel of the invention. After the hydrogel of the invention was removed, the number of the cell having moved into the soft agar was microscopically observed, and the result is shown in Table 1.

[1] = fMLP concentration in soft agar 10^−6 M
[2] = fMLP concentration in soft agar 10^−7 M
[3] = fMLP concentration in soft agar 10^−8 M

## CSCC[C@H](NC=O)C(=O)N[C@@H](CC(C)C)C(=O)N[C@@H](Cc1ccccc1)C(=O)O [fMLP, N-formyl-methionyl-leucyl-phenylalanine]
[1]
  Number of Cells in Hydrogel of the Invention: 300
  Number of Cells in Soft Agar: numerous
[2]
  Number of Cells in Hydrogel of the Invention: 17,600
  Number of Cells in Soft Agar: many
[3]
  Number of Cells in Hydrogel of the Invention: 4,740
  Number of Cells in Soft Agar: a few
